Molecules are shown by their SMILES.

EC50 data for 1 compound are collected here from article PMC3577712 (PLoS ONE, 2013).

Assay [1] has as its system Influenza A/TW/70066/09 (H1N1). As to the kind of experiment: microbe, parasite or virus in culture. The following applies: H1N1, read-out: EC50, viral plaque reduction assay. The format is cell-based. (Plaque reduction counts the foci of infection that form in a cell layer.)
Assay [2] deals with Influenza A/TW/70058/09 (H1N1). Briefly: microbe, parasite or virus in culture. It is filed as cell-based. Conditions: H1N1, read-out: EC50, viral plaque reduction assay.

The EC50 is the midpoint of the concentration-response curve. Consider `Nc1c(S(=O)(=O)O)cc(Nc2cccc(S(=O)(=O)CCOS(=O)(=O)O)c2)c2c1C(=O)c1ccccc1C2=O` [RB19, Remazol Brilliant Blue R], for which the concentration for a half-maximal effect (EC50) in assay [1] was determined as 11.9 µM; in assay [2] it was 9.8 µM.
